Results as given in PMC12621043, “Un-LOK-ing a New Approach for Conformational Selective Targeting of STK10 (LOK)” (ACS Medicinal Chemistry Letters, 2025).

Legend:
Test in all cases: DSF Tm panel
Assay type in all cases: binding
Conditions in all cases: 10 μM compound
DCAMKL1A = biological target: T1, DCAMKL1A (Homo sapiens, UniProt O15075)
T1 construct: purchased in-house DSF kinase panel (SGC-style construct names; the trailing letter is the construct ID)
T1 sequence (O15075 372-649): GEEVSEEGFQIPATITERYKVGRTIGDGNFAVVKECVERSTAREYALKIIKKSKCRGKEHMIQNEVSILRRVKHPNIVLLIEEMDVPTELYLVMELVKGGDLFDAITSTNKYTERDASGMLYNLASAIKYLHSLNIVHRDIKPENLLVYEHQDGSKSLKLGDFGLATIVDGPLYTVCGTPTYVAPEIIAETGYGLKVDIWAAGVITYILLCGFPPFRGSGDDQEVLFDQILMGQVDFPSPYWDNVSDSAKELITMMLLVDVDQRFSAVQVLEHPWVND

DAPK1 (DAPK1A) = biological target: T2, DAPK1 (DAPK1A) (Homo sapiens, UniProt P53355)
T2 construct: purchased in-house DSF kinase panel (SGC-style construct names; the trailing letter is the construct ID)
T2 sequence (P53355 1-285): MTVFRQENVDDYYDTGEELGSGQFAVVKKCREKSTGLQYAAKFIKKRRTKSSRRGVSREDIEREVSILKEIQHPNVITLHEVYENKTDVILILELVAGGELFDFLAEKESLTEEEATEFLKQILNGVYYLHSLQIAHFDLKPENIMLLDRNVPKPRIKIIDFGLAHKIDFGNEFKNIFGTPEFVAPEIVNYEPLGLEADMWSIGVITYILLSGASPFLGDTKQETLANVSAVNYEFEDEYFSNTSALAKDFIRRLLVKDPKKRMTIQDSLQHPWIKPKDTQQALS

MAPK14A = biological target: T3, MAPK14A (Homo sapiens, UniProt Q16539)
T3 construct: purchased in-house DSF kinase panel (SGC-style construct names; the trailing letter is the construct ID)
T3 sequence (Q16539 whole entry): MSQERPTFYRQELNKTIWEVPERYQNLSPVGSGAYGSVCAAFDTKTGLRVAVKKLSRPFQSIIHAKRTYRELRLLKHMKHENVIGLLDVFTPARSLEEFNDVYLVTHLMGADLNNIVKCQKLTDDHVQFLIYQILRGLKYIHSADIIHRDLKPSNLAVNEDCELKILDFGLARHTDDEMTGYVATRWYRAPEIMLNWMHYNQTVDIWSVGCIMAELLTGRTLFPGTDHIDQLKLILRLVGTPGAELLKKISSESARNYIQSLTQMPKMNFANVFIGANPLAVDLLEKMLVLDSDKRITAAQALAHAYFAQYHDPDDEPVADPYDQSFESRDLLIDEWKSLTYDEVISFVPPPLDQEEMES

MELKA = biological target: T4, MELKA (Homo sapiens, UniProt Q14680)
T4 construct: purchased in-house DSF kinase panel (SGC-style construct names; the trailing letter is the construct ID)
T4 sequence (Q14680 1-340): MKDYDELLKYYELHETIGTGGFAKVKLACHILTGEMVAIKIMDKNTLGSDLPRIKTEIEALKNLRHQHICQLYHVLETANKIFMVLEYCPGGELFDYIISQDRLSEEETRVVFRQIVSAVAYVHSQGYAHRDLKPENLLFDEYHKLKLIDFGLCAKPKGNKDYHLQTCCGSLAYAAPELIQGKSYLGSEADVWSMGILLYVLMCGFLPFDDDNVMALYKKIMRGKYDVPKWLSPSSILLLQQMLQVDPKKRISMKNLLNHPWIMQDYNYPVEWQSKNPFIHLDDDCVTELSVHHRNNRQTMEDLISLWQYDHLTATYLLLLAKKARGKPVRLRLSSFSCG

BRAFA = biological target: T5, BRAFA (Homo sapiens, UniProt P15056)
T5 construct: purchased in-house DSF kinase panel (SGC-style construct names; the trailing letter is the construct ID)
T5 sequence (P15056 448-723): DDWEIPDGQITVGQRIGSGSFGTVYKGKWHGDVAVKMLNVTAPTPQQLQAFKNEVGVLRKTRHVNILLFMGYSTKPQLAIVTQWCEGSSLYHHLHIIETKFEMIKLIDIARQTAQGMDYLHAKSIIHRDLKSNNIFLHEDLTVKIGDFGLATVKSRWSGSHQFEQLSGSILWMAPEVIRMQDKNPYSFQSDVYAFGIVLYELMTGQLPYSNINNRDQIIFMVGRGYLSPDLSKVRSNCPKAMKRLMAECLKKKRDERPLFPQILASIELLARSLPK

DYRK1AA = biological target: T6, DYRK1AA (Homo sapiens, UniProt Q13627)
T6 construct: purchased in-house DSF kinase panel (SGC-style construct names; the trailing letter is the construct ID)

CDKL1A = biological target: T7, CDKL1A (Homo sapiens, UniProt Q00532)
T7 construct: purchased in-house DSF kinase panel (SGC-style construct names; the trailing letter is the construct ID)
T7 sequence (Q00532 1-303): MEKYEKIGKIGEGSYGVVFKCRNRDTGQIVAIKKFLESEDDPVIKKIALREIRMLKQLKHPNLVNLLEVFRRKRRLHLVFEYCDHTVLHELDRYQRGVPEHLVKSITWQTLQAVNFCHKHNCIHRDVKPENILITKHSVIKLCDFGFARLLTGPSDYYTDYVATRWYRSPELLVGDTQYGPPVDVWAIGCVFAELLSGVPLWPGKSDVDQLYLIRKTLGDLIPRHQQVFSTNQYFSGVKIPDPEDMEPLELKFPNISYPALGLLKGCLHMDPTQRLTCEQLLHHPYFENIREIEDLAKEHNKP

CLK1A = biological target: T8, CLK1A (Homo sapiens, UniProt P49759)
T8 construct: purchased in-house DSF kinase panel (SGC-style construct names; the trailing letter is the construct ID)
T8 sequence (P49759 148-484): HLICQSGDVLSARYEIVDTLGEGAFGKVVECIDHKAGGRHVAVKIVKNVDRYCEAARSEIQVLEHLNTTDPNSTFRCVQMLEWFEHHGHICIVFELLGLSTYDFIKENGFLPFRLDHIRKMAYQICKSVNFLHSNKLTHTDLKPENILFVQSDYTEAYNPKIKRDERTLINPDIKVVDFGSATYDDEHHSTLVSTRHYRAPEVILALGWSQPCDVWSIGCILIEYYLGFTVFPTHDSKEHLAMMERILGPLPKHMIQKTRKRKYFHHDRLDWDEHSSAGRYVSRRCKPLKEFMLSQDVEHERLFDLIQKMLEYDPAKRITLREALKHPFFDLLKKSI

EPHB3A = biological target: T9, EPHB3A (Homo sapiens, UniProt P54753)
T9 construct: purchased in-house DSF kinase panel (SGC-style construct names; the trailing letter is the construct ID)
T9 sequence (P54753 34-998): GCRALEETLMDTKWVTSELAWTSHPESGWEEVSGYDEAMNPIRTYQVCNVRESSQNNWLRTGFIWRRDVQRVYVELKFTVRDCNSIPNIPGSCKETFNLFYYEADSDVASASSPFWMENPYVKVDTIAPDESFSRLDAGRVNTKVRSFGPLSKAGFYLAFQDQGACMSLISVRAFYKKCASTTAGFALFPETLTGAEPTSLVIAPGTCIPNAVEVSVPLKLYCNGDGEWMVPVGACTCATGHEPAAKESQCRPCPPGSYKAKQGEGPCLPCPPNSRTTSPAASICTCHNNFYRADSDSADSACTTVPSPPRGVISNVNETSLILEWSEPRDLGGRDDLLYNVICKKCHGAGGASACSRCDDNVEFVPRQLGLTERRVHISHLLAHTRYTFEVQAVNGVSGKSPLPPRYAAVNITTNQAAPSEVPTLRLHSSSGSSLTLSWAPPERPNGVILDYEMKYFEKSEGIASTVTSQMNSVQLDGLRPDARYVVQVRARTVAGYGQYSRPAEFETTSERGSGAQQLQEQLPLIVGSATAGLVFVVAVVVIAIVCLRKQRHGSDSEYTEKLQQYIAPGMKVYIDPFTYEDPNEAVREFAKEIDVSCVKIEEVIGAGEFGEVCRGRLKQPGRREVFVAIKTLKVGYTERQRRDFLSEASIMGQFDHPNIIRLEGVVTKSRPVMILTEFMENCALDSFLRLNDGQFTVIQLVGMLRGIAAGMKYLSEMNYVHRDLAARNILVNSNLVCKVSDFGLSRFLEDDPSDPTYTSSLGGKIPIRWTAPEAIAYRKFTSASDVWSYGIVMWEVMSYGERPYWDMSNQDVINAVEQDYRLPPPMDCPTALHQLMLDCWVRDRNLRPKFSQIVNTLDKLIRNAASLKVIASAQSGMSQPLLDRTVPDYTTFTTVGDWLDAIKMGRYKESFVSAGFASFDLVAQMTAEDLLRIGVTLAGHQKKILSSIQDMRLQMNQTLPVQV

NEK1A = biological target: T10, NEK1A (Homo sapiens, UniProt Q96PY6)
T10 construct: purchased in-house DSF kinase panel (SGC-style construct names; the trailing letter is the construct ID)
T10 sequence (Q96PY6 1-328): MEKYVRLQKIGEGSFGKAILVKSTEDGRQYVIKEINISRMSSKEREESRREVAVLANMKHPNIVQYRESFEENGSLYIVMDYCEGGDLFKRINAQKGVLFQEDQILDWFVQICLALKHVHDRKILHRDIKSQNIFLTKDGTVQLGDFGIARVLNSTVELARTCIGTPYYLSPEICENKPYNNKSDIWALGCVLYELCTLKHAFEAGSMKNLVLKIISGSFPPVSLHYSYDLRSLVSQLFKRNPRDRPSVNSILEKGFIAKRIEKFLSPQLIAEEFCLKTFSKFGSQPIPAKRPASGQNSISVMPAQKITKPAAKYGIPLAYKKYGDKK

STK17BA = biological target: T11, STK17BA (Homo sapiens, UniProt O94768)
T11 construct: purchased in-house DSF kinase panel (SGC-style construct names; the trailing letter is the construct ID)
T11 sequence (O94768 25-329): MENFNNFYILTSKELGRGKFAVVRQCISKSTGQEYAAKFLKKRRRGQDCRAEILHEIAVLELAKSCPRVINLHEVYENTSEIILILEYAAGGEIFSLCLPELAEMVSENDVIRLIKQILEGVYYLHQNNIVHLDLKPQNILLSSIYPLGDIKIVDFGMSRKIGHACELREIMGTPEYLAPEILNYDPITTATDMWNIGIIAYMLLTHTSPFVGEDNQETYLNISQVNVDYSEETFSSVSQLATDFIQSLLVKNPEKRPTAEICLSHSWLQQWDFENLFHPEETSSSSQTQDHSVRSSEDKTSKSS

FGFR2A = biological target: T12, FGFR2A (Homo sapiens, UniProt P21802)
T12 construct: purchased in-house DSF kinase panel (SGC-style construct names; the trailing letter is the construct ID)
T12 sequence (P21802 458-770): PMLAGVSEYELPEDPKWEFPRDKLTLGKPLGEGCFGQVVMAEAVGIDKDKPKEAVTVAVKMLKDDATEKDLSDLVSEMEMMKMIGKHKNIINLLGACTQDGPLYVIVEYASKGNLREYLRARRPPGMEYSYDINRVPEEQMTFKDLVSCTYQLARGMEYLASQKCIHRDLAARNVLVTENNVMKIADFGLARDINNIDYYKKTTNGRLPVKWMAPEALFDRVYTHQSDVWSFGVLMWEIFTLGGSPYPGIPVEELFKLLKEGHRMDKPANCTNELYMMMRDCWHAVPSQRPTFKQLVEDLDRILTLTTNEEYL

GPRK5A = biological target: T13, GPRK5A (Homo sapiens, UniProt P34947)
T13 construct: purchased in-house DSF kinase panel (SGC-style construct names; the trailing letter is the construct ID)
T13 sequence (P34947 186-514): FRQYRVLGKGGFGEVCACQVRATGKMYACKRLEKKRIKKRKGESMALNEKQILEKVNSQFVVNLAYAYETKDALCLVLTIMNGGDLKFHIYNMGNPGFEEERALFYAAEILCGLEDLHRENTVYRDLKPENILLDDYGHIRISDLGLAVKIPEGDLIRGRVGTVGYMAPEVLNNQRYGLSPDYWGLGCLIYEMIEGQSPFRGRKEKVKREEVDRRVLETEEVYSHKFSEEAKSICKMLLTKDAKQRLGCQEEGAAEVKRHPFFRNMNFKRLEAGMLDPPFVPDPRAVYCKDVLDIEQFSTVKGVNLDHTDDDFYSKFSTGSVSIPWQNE

MAPK9A = biological target: T14, MAPK9A (Homo sapiens, UniProt P45984)
T14 construct: purchased in-house DSF kinase panel (SGC-style construct names; the trailing letter is the construct ID)
T14 sequence (P45984 7-364): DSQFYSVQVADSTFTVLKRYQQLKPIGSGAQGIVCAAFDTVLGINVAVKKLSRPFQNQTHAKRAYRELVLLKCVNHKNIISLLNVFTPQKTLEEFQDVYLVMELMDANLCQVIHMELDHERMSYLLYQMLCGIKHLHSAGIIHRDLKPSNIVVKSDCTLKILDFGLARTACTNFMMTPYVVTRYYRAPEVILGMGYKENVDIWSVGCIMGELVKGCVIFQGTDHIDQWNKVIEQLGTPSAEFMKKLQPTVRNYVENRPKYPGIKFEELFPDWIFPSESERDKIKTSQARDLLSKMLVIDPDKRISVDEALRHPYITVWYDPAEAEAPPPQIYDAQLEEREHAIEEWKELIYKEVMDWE

ΔTm at 10 µM (DCAMKL1A) [°C] | ΔTm at 10 µM (DAPK1 (DAPK1A)) [°C] | ΔTm at 10 µM (MAPK14A) [°C] | ΔTm at 10 µM (MELKA) [°C] | ΔTm at 10 µM (BRAFA) [°C] | ΔTm at 10 µM (DYRK1AA) [°C] | ΔTm at 10 µM (CDKL1A) [°C] | ΔTm at 10 µM (CLK1A) [°C] | ΔTm at 10 µM (EPHB3A) [°C] | ΔTm at 10 µM (NEK1A) [°C] | ΔTm at 10 µM (STK17BA) [°C] | ΔTm at 10 µM (FGFR2A) [°C] | ΔTm at 10 µM (GPRK5A) [°C] | ΔTm at 10 µM (MAPK9A) [°C] | SMILES
1.4 | 0.3 | 1.5 | 1.7 | -0.5 | 0.3 | 0.6 | 2.8 | 0.8 | -0.4 | 2.6 | 3.1 | 0.9 | -1.3 | COc1ccc(CNC(=O)Nc2ccc3cc2OCCOCCNc2ccn4ncc-3c4n2)cc1 [compound 31]
1.9 | 0.5 | 1.3 | 1.3 | -0.5 | -0.1 | 0.2 | 3.1 | 0.5 | -0.4 | 2.7 | 2.8 | 0.2 | -2 | C[C@H](NC(=O)Nc1ccc2cc1OCCOCCNc1ccn3ncc-2c3n1)c1ccccc1 [compound 34]
1.2 | 0.1 | 0.9 | 1.3 | -0.2 | -0.4 | 0.3 | 2.5 | 0.3 | -0.2 | 1.8 | 3.1 | 0.5 | -1.9 | COc1cccc(CNC(=O)Nc2ccc3cc2OCCOCCNc2ccn4ncc-3c4n2)c1 [compound 30]

More lines, now with the values behind:

SMILES | ΔTm at 10 µM (DCAMKL1A) [°C] | ΔTm at 10 µM (DAPK1 (DAPK1A)) [°C] | ΔTm at 10 µM (MAPK14A) [°C] | ΔTm at 10 µM (MELKA) [°C] | ΔTm at 10 µM (BRAFA) [°C] | ΔTm at 10 µM (DYRK1AA) [°C] | ΔTm at 10 µM (CDKL1A) [°C] | ΔTm at 10 µM (CLK1A) [°C] | ΔTm at 10 µM (EPHB3A) [°C] | ΔTm at 10 µM (NEK1A) [°C] | ΔTm at 10 µM (STK17BA) [°C] | ΔTm at 10 µM (FGFR2A) [°C] | ΔTm at 10 µM (GPRK5A) [°C] | ΔTm at 10 µM (MAPK9A) [°C]
COc1ccccc1CNC(=O)Nc1ccc2cc1OCCOCCNc1ccn3ncc-2c3n1 [compound 29] | 0.9 | -0.1 | 0.9 | 1 | -0.4 | -0.5 | 0.2 | 2.8 | 0.4 | -0.3 | 1.7 | 2.9 | 0.4 | -2.1
O=C(NCc1ccc(C(F)(F)F)cc1)Nc1ccc2cc1OCCOCCNc1ccn3ncc-2c3n1 [compound 28] | 2.7 | 0.4 | 3.1 | 0.9 | 0 | 1.6 | 0.6 | 2.3 | 1.4 | 0 | 4.8 | 2.3 | 0.7 | -0.2
O=C(NCc1ccccc1)Nc1ccc2cc1OCCOCCNc1ccn3ncc-2c3n1 [compound 16] | 0.8 | 1.3 | -0.6 | 2 | 0.8 | 3.8 | -0.1 | 3.4 | 0.8 | 0.1 | 1.3 | 4.8 | 1.2 | 1.7
